This is an account of results in patent US10000486B2 (priority 2012, dated 2018).

For one assay, the system named is VSVg pseudotyped virus. The assay is described as follows: organism not typed. The following applies: read-out: Activity (EC50 in μM vs. pseudotyped virus) VSVg. Type of assay: cell-based.
In another assay the test system is Sabiá pseudotyped virus. In words: organism not typed. In kind it is cell-based. The following applies: read-out: Activity (EC50 in μM vs. pseudotyped virus) Sabiá.
For assay [1], the system named is Lassa GP-pseudotyped-virus. The assay is described as follows: microbe, parasite or virus in culture. The note with it: for EC50: Human immunodeficiency virus 1, read-out: Activity (EC50 in μM vs. pseudotyped virus) Lassa. Type of assay: cell-based, Lassa fever virus.
Assay [2] relates to Guanarito pseudotyped virus. In words: organism not typed. In kind it is cell-based. The following applies: read-out: Activity (EC50 in μM vs. pseudotyped virus) Guanarito.
For assay [3], the system named is Machupo pseudotyped virus. In words: organism not typed. Type of assay: cell-based. The note with it: read-out: Activity (EC50 in μM vs. pseudotyped virus) Machupo.
A further assay relates to Junín pseudotyped virus. In words: organism not typed. In kind it is cell-based. The note with it: read-out: Activity (EC50 in μM vs. pseudotyped virus) Junín.

Structures can show the parent of a compound that is named as a salt.

In the case of `CCOc1ccc(-n2cnc3cc(/C=C\c4ccc(CC)cc4)ccc32)cc1` [Compound 2, 1-(4-ethoxyphenyl)-5-[(Z)-2-(4-ethylphenyl)vinyl]benzimidazole], the concentration for a half-maximal effect (EC50) in the assay on VSVg pseudotyped virus is 10 to 50 µM; in the assay with Sabiá pseudotyped virus, below 1 µM; in assay [1] it was below 1 µM; in assay [2] it was below 1 µM; in assay [3], below 1 µM; in the assay with Junín pseudotyped virus, below 1 µM. Also, the “EC50 value against Lassa GP-pseudotyped-virus” value in assay [1] was “submicromolar”.

For the compound `CCOc1ccc(-n2cnc3cc(/C=C\c4ccc(C(C)(C)C)cc4)ccc32)cc1` [Compound 5, 5-[(Z)-2-(4-tert-butylphenyl)vinyl]-1-(4-ethoxyphenyl)benzimidazole], the EC50 in the assay with VSVg pseudotyped virus is 10 to 50 µM; in the assay on Sabiá pseudotyped virus, below 1 µM; in assay [1] it was below 1 µM; in assay [3], below 1 µM; in the assay with Junín pseudotyped virus, below 1 µM.

On to `CC(C)Oc1ccc(-n2cnc3cc(/C=C\c4ccc(C(C)(C)C)cc4)ccc32)cc1` [Compound 7, 5-[(Z)-2-(4-tert-butylphenyl)vinyl]-1-(4-isopropoxyphenyl)-benzimidazole], for which the EC50 in the assay with VSVg pseudotyped virus is 10 to 50 µM; with Sabiá pseudotyped virus, below 1 µM; in assay [1], below 1 µM; in assay [3] it was below 1 µM; with Junín pseudotyped virus, below 1 µM.

With `CCc1ccc(/C=C\c2ccc3c(c2)ncn3-c2ccc(OC(C)C)cc2)cc1` [Compound 9, 5-[(Z)-2-(4-ethylphenyl)vinyl]-1-(4-isopropoxyphenyl)-benzimidazole], the concentration giving a half-maximal response (EC50) with VSVg pseudotyped virus is 10 to 50 µM; in the assay on Sabiá pseudotyped virus it was below 1 µM; in assay [1], below 1 µM; in assay [3], below 1 µM; with Junín pseudotyped virus, below 1 µM.

For `CCc1ccc(/C=C\c2ccc3c(c2)ncn3-c2ccc(OC(C)(C)C)cc2)cc1` [Compound 15, 1-(4-tert-butoxyphenyl)-5-[(Z)-2-(4-ethylphenyl)-vinyl]benzimidazole], the results for the concentration giving a half-maximal response (EC50) (in the assay on VSVg pseudotyped virus; with Sabiá pseudotyped virus; in assay [1]) were 10 to 50 µM, below 1 µM and below 1 µM, respectively.

Turning to `CC(C)(C)Oc1ccc(-n2cnc3cc(/C=C\c4ccc(C(C)(C)C)cc4)ccc32)cc1` [Compound 17, 1-(4-tert-butoxyphenyl)-5-[(Z)-2-(4-tert-butylphenyl)vinyl]benzimidazole], the EC50 is 10 to 50 µM with VSVg pseudotyped virus, below 1 µM in the assay on Sabiá pseudotyped virus and below 1 µM in assay [1].

As for `CCOc1ccc(-n2cnc3cc(/C=C\c4ccc(CC)cc4)ccc32)nc1` [Compound 19, 1-(5-ethoxy-2-pyridyl)-5-[(Z)-2-(4-ethylphenyl)vinyl]benzimidazol hydrochloride], the EC50 in the assay on VSVg pseudotyped virus is 10 to 50 µM; in the assay with Sabiá pseudotyped virus, below 1 µM; in assay [1] it was below 1 µM; in assay [3], below 1 µM; with Junín pseudotyped virus, below 1 µM.

On to `CCOc1ccc(-n2cnc3cc(/C=C\c4ccc(C(C)(C)C)cc4)ccc32)nc1` [Compound 21, 5-[(Z)-2-(4-tert-butylphenyl)vinyl]-1-(5-ethoxy-2-pyridyl)benzimidazole hydrochloride], for which the EC50 with VSVg pseudotyped virus is 10 to 50 µM; with Sabiá pseudotyped virus, below 1 µM; in assay [1], below 1 µM; in assay [3], below 1 µM; in the assay on Junín pseudotyped virus, below 1 µM.

Consider `COc1ccc(-n2cnc3cc(/C=C\c4ccc(C(C)C)cc4)cnc32)cc1` [Compound 24, 6-[(Z)-2-(4-isopropylphenyl)vinyl]-3-(4-methoxyphenyl)imidazo[4,5-b]pyridine], for which the concentration giving a half-maximal response (EC50) was 10 to 50 µM in the assay with VSVg pseudotyped virus; below 1 µM in the assay on Sabiá pseudotyped virus; below 1 µM in assay [1]; below 1 µM in assay [3]; below 1 µM with Junín pseudotyped virus.

In the case of `CCOc1ccc(-n2cnc3cc(CCc4ccc(CC)cc4)ccc32)cc1` [Compound 27, 1-(4-ethoxyphenyl)-5-[2-(4-ethylphenyl)-ethyl]benzimidazole], the concentration for a half-maximal effect (EC50) with VSVg pseudotyped virus is above 50 µM; in the assay on Sabiá pseudotyped virus, below 1 µM; in assay [1], below 1 µM; in assay [2], below 1 µM; in assay [3], below 1 µM; in the assay with Junín pseudotyped virus it was below 1 µM.

As to `CCOc1ccc(-n2cnc3cc(OCc4ccc(CC)cc4)cnc32)cc1` [Compound 31, 3-(4-ethoxyphenyl)-6-[(4-ethylphenyl)-methoxy]imidazo[4,5-b]pyridine], the EC50 in the assay on VSVg pseudotyped virus is 10 to 50 µM; in the assay with Sabiá pseudotyped virus it was below 1 µM; in assay [1] it was below 1 µM; in assay [2], below 1 µM; in assay [3], below 1 µM; in the assay on Junín pseudotyped virus it was below 1 µM.

Take `COc1ccc(-n2cnc3cc(OCc4ccc(C(C)C)cc4)cnc32)cc1` [Compound 32, 6-[(4-isopropyl-phenyl)methoxy]-3-(4-methoxyphenyl)imidazo[4,5-b]pyridine]: the EC50 in the assay with VSVg pseudotyped virus was 10 to 50 µM; in the assay with Sabiá pseudotyped virus it was below 1 µM; in assay [1], below 1 µM; in assay [3], below 1 µM; in the assay on Junín pseudotyped virus, below 1 µM.

`CCOc1ccc(-n2cnc3cc(SCc4ccc(CC)cc4)ccc32)cc1` [Compound 33, 1-(4-ethoxyphenyl)-5-[(4-ethylphenyl)-methylsulfanyl]benzimidazole]: the EC50 with VSVg pseudotyped virus was 10 to 50 µM; in the assay on Sabiá pseudotyped virus, below 1 µM; in assay [1], below 1 µM; in assay [2], below 1 µM; in assay [3] it was below 1 µM; with Junín pseudotyped virus, below 1 µM.

Take `CC(C)Oc1ccc(-n2cnc3cc(/C=C\c4ccc(C(=O)O)cc4)ccc32)cc1` [Compound 45, 4-[(Z)-2-[1-(4-isopropoxyphenyl)benzimidazol-5-yl]vinyl]benzoic acid]: the EC50 with VSVg pseudotyped virus is above 50 µM; in the assay on Sabiá pseudotyped virus, 1 to 10 µM; in assay [1] it was 10 to 50 µM; in assay [3] it was below 1 µM; in the assay with Junín pseudotyped virus it was below 1 µM.

Take `CCOc1ccc(-n2cnc3cc(/C=C\c4ccc(C(C)(C)O)cc4)ccc32)cc1` [Compound 61, 2-[4-[(Z)-2-[1-(4-ethoxyphenyl)benzimidazol-5-yl]vinyl]phenyl]propan-2-ol]: the EC50 is 10 to 50 µM in the assay on VSVg pseudotyped virus; below 1 µM in the assay with Sabiá pseudotyped virus; below 1 µM in assay [1]; below 1 µM in assay [3]; below 1 µM with Junín pseudotyped virus.

`CCOc1ccc(-c2cnc3cc(NCc4ccc(CC)cc4)ccn23)cc1` [Compound 65, 3-(4-ethoxyphenyl)-N-[(4-ethylphenyl)-methyl]imidazo[1,2-a]pyridin-7-amine]: the EC50 is 1 to 10 µM with VSVg pseudotyped virus, below 1 µM in assay [1], below 1 µM in assay [3] and below 1 µM in the assay on Junín pseudotyped virus.

With `CCOc1ccc(-n2c[n+]([O-])c3cc(NCc4ccc(CC)cc4)ccc32)cc1` [Compound 67, 1-(4-ethoxyphenyl)-N-[(4-ethylphenyl)-methyl]-3-oxido-benzimidazol-3-ium-5-amine], the 50% effective concentration (EC50) is 10 to 50 µM with VSVg pseudotyped virus, below 1 µM in assay [1], below 1 µM in assay [3] and below 1 µM in the assay on Junín pseudotyped virus.

Usually EC50 stands for the concentration at which the effect is half-maximal.
